# Laboratory results from article PMC10482267, “Safety, tolerability, pharmacokinetics, and pharmacodynamics of single and multiple doses of aficamten in healthy Chinese participants: a randomized, double-blind, placebo-controlled, phase 1 study” (Frontiers in Pharmacology, 2023).
# Values joined by “and” are separate entries in the source; they are usually repeats but may differ in a detail not shown here. Equal values may be shown once. Read-outs that look alike come from different tables or passages of the source.
# What was measured:
# CYP2D6 = test system: CYP2D6; parameters: method as in not given; conditions: in vitro; forms metabolites CK-3834282 and CK-3834283; ref not given; cited from earlier work
# [1] = Plasma pharmacokinetics of aficamten and metabolites after single and multiple oral doses, phase 1 study; format: in vivo, human; conditions: for AR_AUC (accumulation ratio based on AUC0-24) / AR_Cmax (accumulation ratio based on Cmax): day 14 vs day 1; for Tmax / AUC(0-inf) / AUC(0-t) / Cmax / half-life: human
# Method: This was a double-blind, randomized, placebo-controlled, phase 1 study including SAD and MD dose cohorts (Figure 1). […] For the second single-dose cohort, 20 mg was chosen as the escalated dose according to the dosing plan scheduled in the phase 3 study (CY 6031: NCT05186818). Furthermore, a multiple oral dose of 5 mg once daily (QD) was selected to explore the steady-state PK exposure in Chinese participants and to compare the findings with the MAD 5 mg QD results in the study CY 6011.
# A total of 28 participants were enrolled in the study, with eight participants per SAD cohort (10 mg and 20 mg) and 12 participants in the MD cohort (5 mg). The sample size chosen for this study was based on other precedent PK studies of similar nature and was not based on power calculations. In each SAD cohort, eight eligible participants were randomized in 3:1 ratio to receive a single oral dose of aficamten or the matching placebo after overnight fasting. The dose escalation criteria (see Supplementary File S1) had to be met to proceed from the SAD 10 mg cohort to the SAD 20 mg cohort. In addition, the SAD 20 mg cohort started at least 5 days after the last subject’s administration in the SAD 10 mg cohort. Upon the completion of the SAD 20 mg cohort, the study proceeded to the MD 5 mg cohort when the dose escalation criteria were met. The MD cohort started at least 5 days later after the last subject’s administration in the SAD 20 mg cohort. In the MD cohort, 12 eligible participants were enrolled and randomized in 3:1 ratio to receive multiple oral doses of 5 mg of aficamten or the matching placebo under fasting conditions for 14 days. The investigator would determine if stopping rules (see Supplementary File S2) were met in this cohort.
# (§1) Blood samples (4 mL) for plasma PK analysis of aficamten and its metabolites (mono-hydroxylated derivative CK-3834282 and its diastereomer CK-3834283) were collected into K2EDTA tubes in the SAD cohorts at the following time points: at pre-dose and at 0.25, 0.5, 1, 1.5, 2, 2.5, 3, 4, 6, 8, 12, 16, 24, 36, 48, 72, 96, and 216 h post-dose. In the MD cohort, blood samples were collected at pre-dose and at 0.25, 0.5, 1, 1.5, 2, 2.5, 3, 4, 6, 8, 12, and 16 h post-dose on day 1; at pre-dose and at 1.5 h post-dose on day 2, days 4–6, and day 9; at pre-dose on day 3, days 7–8, and days 10–13; at pre-dose and at 0.25, 0.5, 1, 1.5, 2, 2.5, 3, 4, 6, 8, 12, 16, 24, 36, 48, 72, 168, and 216 h post-dose on day 14. After collection, blood samples were centrifuged at 1700 g for 10 min at 4°C ± 2°C; plasma was aliquoted and stored at −80°C ± 20°C until analyzed. Meanwhile, samples for urine PK analysis of aficamten were collected in the MD cohort as follows: pre-dose, 0–4 h, 4–8 h, 8–12 h, and 12–24 h on days 1 and 14, respectively.
# (§2) The samples were determined using a validated ultra-performance liquid chromatography-tandem mass spectrometry (UPLC-MS/MS) method. The detection was performed on a tandem mass spectrometer in the electrospray ionization (ESI)-positive mode. The multiple reactions monitoring (MRM) mode was applied to monitor the following ion transitions: m/z 338.2→213.2 for aficamten and m/z 354.3→ 229.3 for metabolite CK-3834282 and its diastereomer CK-3834283. Note that the diastereomers were separated from chromatography during the analysis. The calibration curves of the plasma and urine samples were linear, ranging from 1 to 500 ng/mL, and the intra- and inter-run accuracies (RE%) and precisions (RSD%) were within ±15%. In addition, the selectivity, matrix effect, extraction recovery, carryover, and stability at different conditions were also fully evaluated.
# The plasma PK parameters were evaluated using the plasma concentrations by the non-compartmental model approach using WinNonlin (version 8.3, Certara LP, Princeton, NJ, USA) and were summarized descriptively by the cohort and dose. […]
# [2] = Urine pharmacokinetics of aficamten, MD cohort; format: in vivo, human; conditions: for Ae(0–24) (amount excreted unchanged in urine) / CL renal: MD 5 mg, mean ± SD; for CL renal: human, urine, oral, 5 mg, read-out: CLr (renal clearance) (converted)
# Method: as §1, §2
# The urine PK parameters (MD cohort) were calculated as follows: CLR (renal clearance), Ae (amount of drug excreted unchanged in the urine), and Fe (percentage of drug excreted unchanged in the urine).
# [3] = MD 5 mg once daily, mean ± SD, listed as Aficamten
structure (smiles),measurement,setting,value
CCc1nc(-c2ccc3c(c2)CC[C@H]3NC(=O)c2cnn(C)c2)no1 [aficamten],CYP isoform involved in metabolism,CYP2D6,"CYP2D6, as the primary isoform involved in aficamten metabolism"
same,AR_AUC (accumulation ratio based on AUC0-24),"[1]; MD 5 mg once daily, mean ± SD",4.2 and 4.16
same,AR_Cmax (accumulation ratio based on Cmax),"[1]; MD 5 mg once daily, mean ± SD",1.8
same,AR_AUC (accumulation ratio based on AUC0-24),[1]; [3],4.2 ± 0.4
same,AR_Cmax (accumulation ratio based on Cmax),[1]; [3],1.8 ± 0.6
same,t1/2,"[1]; MD 5 mg, day 14, plasma, mean ± SD",76.8 ± 11.8 h
same,"tmax (tmax,ss)","[1]; MD 5 mg, day 14, plasma, median (minimum, maximum)","0.5 (0.25, 2.0) h"
same,CL/F,"[1]; MD 5 mg, day 14, mean ± SD",3.8 ± 0.6 L/h
same,V/F,"[1]; MD 5 mg, day 14, mean ± SD",412.7 ± 66.1 L
same,CL/F,"[1]; SAD 10 mg, mean ± SD",3.0 ± 0.19 L/h
same,V/F,"[1]; SAD 10 mg, mean ± SD",320.3 ± 51.3 L
same,t1/2,"[1]; SAD 20 mg, plasma, mean ± SD",77.3 ± 13.6 h
same,CL/F,"[1]; SAD 20 mg, mean ± SD",3.4 ± 0.2 L/h
same,V/F,"[1]; SAD 20 mg, mean ± SD",371.9 ± 55.4 L
same,"dose proportionality of plasma exposure (AUC0-24 and Cmax), in words",[1]; dose range 5–20 mg,dose-proportional
same,Tmax,"[1]; oral, MD 5 mg, day 1, plasma, median (minimum, maximum), read-out: tmax",0.5 h
same,AUC(0-inf),"[1]; oral, SAD 10 mg, plasma, mean ± SD",3340 ± 223 ng·h/mL
same,Tmax,"[1]; oral, SAD 10 mg, plasma, median (minimum, maximum), read-out: tmax",0.75 h
same,AUC(0-inf),"[1]; oral, SAD 20 mg, plasma, mean ± SD",5990 ± 415 ng·h/mL
same,Tmax,"[1]; oral, SAD 20 mg, plasma, median (minimum, maximum), read-out: tmax",0.5 h
same,AUC(0-t),"[1]; plasma, oral, 5 mg, MD 5 mg once daily, day 1, plasma, mean ± SD, N = 9, read-out: AUC0-24",325 ± 32.6 ng·h/mL
same,AUC(0-t),"[1]; plasma, oral, 5 mg, MD 5 mg once daily, day 14, plasma, mean ± SD, N = 9, read-out: AUC0-24",1360 ± 215 ng·h/mL
same,AUC(0-t),"[1]; plasma, oral, 5 mg, MD 5 mg, day 1, plasma, mean ± SD, read-out: AUC0-t",324 ± 32.5 ng·h/mL
same,Cmax,"[1]; plasma, oral, 5 mg, MD 5 mg, day 1, plasma, mean ± SD, read-out: Cmax",72.6 ± 19.5 ng/mL
same,half-life,"[1]; plasma, oral, 5 mg, MD 5 mg, day 1, plasma, mean ± SD, read-out: t1/2 (converted)",38.6 ± 16.1 h
same,Cmax,"[1]; plasma, oral, 5 mg, MD 5 mg, day 14, plasma, mean ± SD, read-out: Cmax (Cmax,ss)",122 ± 35.2 ng/mL
same,half-life,"[1]; plasma, oral, 5 mg, MD 5 mg, day 14, plasma, mean ± SD, read-out: t1/2 (converted)",~77 h
same,AUC(0-t),"[1]; plasma, oral, 10 mg, SAD 10 mg, plasma, mean ± SD, read-out: AUC0-t",2780 ± 249 ng·h/mL
same,Cmax,"[1]; plasma, oral, 10 mg, SAD 10 mg, plasma, mean ± SD, read-out: Cmax",115 ± 29.9 ng/mL
same,half-life,"[1]; plasma, oral, 10 mg, SAD 10 mg, plasma, mean ± SD, read-out: t1/2 (converted)",73.8 ± 10.2 h
same,AUC(0-t),"[1]; plasma, oral, 20 mg, SAD 20 mg, plasma, mean ± SD, read-out: AUC0-t",5290 ± 372 ng·h/mL
same,Cmax,"[1]; plasma, oral, 20 mg, SAD 20 mg, plasma, mean ± SD, read-out: Cmax",227 ± 71.8 ng/mL
same,Tmax,"[1]; plasma, oral, all cohorts, read-out: time of peak concentration (tmax day 1, tmax,ss day 14)",0.5 to 0.75 h
same,AUC(0-t),"[1]; plasma, po, 10 mg, SAD 10 mg single oral dose, fasted, plasma, mean ± SD, N = 6, read-out: AUC0-24",670 ± 85 ng·h/mL
same,AUC(0-t),"[1]; plasma, po, 20 mg, SAD 20 mg single oral dose, fasted, plasma, mean ± SD, N = 6, read-out: AUC0-24",1300 ± 151 ng·h/mL
same,half-life,"[1]; plasma, po, across single oral dose 10 mg and 20 mg and 14 days QD 5 mg, read-out: mean half-life",74 to 77 h
same,half-life,"[1]; plasma, po, single oral dose of 10 mg and 20 mg of aficamten, across both doses, read-out: t1/2 (arithmetic mean)",74 to 77 h
same,Ae(0–24) (amount excreted unchanged in urine),"[2]; day 1, urine",3.2 ± 2.6 µg
same,Ae(0–24) (amount excreted unchanged in urine),"[2]; day 14, urine",18.5 ± 8.0 µg
same,CL renal,"[2]; day 1, urine",0.158 mL/min
same,CL renal,"[2]; day 14, urine",0.228 mL/min
same,drug excreted with urine in unchanged form,[2]; multiple doses of 5 mg,about 0.37%
